Results on twelve compounds are retold here after patent publication US11358952B2, “Substituted 4-aminoisoindoline-1,3-dione compounds, compositions thereof, and methods of treatment therewith” (Celgene Corporation, priority 2018, dated 2022).

The subject of this assay is SU-DHL-4 cell line. The experiment in a line: SU-DHL-4 cell proliferation assay (Cell Titer-Glo viability). It is filed as cell-based. Conditions: Homo sapiens; cell viability IC50 activity level, DLBCL cell line SU-DHL-4, 120 hours post-treatment; read-out: SU-DHL-4 Act. The procedure: SU-DHL-4 Cell Proliferation Assay.
The following is an example of an assay that can be used to determine the anti-proliferative activity of Isoindolinedione Compounds in a DLBCL cell line, for example, the SU-DHL-4 cell line (Deutsche Sammlung von Mikroorganismen and Zellkulturen GmbH [DSMZ]: catalogue number ACC-495) at 120 hours post-treatment. The seeding density for SU-DHL-4 can be optimized to ensure assay linearity in 1536-well plates.
Increasing concentrations of test compounds (0.5 nM to 10 μM) were spotted in a 20-point dilution fashion (unevenly spaced data points) via an acoustic dispenser (EDC ATS-100) into an empty 1536-well plate. The DMSO concentration was kept constant for a final assay concentration of 0.1% DMSO. Prior to testing, SU-DHL-4 cells were grown in RPMI-1640 (Roswell Park Memorial Institute—1640) medium with 10% FBS (fetal bovine serum: HyClone) and expanded in culture flasks to provide sufficient amounts of starting material. Cells were then diluted to 500 cells per well in a 5 μL volume, and added directly to the compound-spotted 1536-well plates. Cells were allowed to grow for 120 hours in 5% CO2 at 37° C. At the time when exposure of cells to compound began (to), initial viable cell number was assessed via Cell Titer-Glo® Luminescent Cell Viability Assay at a 1 vol:2 vol ratio according to manufacturer's instructions (Promega Corporation, Madison, Wis.) by quantifying the level of luminescence generated by adenosine-5′-triphosphate (ATP) present in viable cells. After 120 hours, cell viability of the treated cells was assessed via Cell Titer-Gb® and read for luminescence. All growth inhibition curves were processed and evaluated using Activity Base (IDBS, Alameda, Calif.). Cell viability IC50 values were calculated using a four parameter logistic model (sigmoidal dose-response model): y=(A+((B−A)/(1+((C/x)^D)))) wherein: A=YMin B=YMax C=EC50 D=Hill slope IC50=the concentration of the compound when Y=50% of DMSO control Y=cell viability measured as luminescence unit, and x=concentration of compound.
As to `O=C1CCC(N2C(=O)c3cccc(NCc4ccc(CN5CC6(CCCC6)C5)cc4)c3C2=O)C(=O)N1` (stereo not drawn) [Cpd 39, 4-(4-(2-azaspiro[3.4]octan-2-ylmethyl)benzylamino)-2-(2,6-dioxopiperidin-3-yl)isoindoline-1,3-dione], the IC50 is under 200 nM.

Take `Cc1cc(CNc2cccc3c2C(=O)N(C2CCC(=O)NC2=O)C3=O)ccc1CN1CCC(C(C)C)CC1` (stereo not drawn) [Cpd 40, 2-(2,6-dioxopiperidin-3-yl)-4-(4-((4-isopropylpiperidin-1-yl)methyl)-3-methylbenzylamino)isoindoline-1,3-dione]: the IC50 is under 200 nM.

On to `CCC1CCN(Cc2ccc(CNc3cccc4c3C(=O)N(C3CCC(=O)NC3=O)C4=O)cc2C)CC1` (stereo not drawn) [Cpd 41, 2-(2,6-dioxopiperidin-3-yl)-4-(4-((4-ethylpiperidin-1-yl)methyl)-3-methylbenzylamino)isoindoline-1,3-dione], for which the IC50 was under 200 nM.

Regarding `Cc1cc(CNc2cccc3c2C(=O)N(C2CCC(=O)NC2=O)C3=O)ccc1CN1CCC(C)(C)CC1` (stereo not drawn) [Cpd 42, 4-(4-((4,4-dimethylpiperidin-1-yl)methyl)-3-methylbenzylamino)-2-(2,6-dioxopiperidin-3-yl)isoindoline-1,3-dione], the IC50 was under 200 nM.

Regarding `Cc1cc(CNc2cccc3c2C(=O)N(C2CCC(=O)NC2=O)C3=O)ccc1CN1CCC(C(C)(C)C)CC1` (stereo not drawn) [Cpd 43, 4-(4-((4-tert-butylpiperidin-1-yl)methyl)-3-methylbenzylamino)-2-(2,6-dioxopiperidin-3-yl)isoindoline-1,3-dione], the IC50 was under 200 nM.

Consider `Cc1cc(CNc2cccc3c2C(=O)N(C2CCC(=O)NC2=O)C3=O)ccc1CN1CCC2(CC1)CC2` (stereo not drawn) [Cpd 44, 4-(4-(6-azaspiro[2.5]octan-6-ylmethyl)-3-methylbenzylamino)-2-(2,6-dioxopiperidin-3-yl)isoindoline-1,3-dione], for which the IC50 was under 200 nM.

In the case of `Cc1cc(CNc2cccc3c2C(=O)N(C2CCC(=O)NC2=O)C3=O)ccc1CN1CCC(C(F)(F)F)CC1` (stereo not drawn) [Cpd 45, 2-(2,6-dioxopiperidin-3-yl)-4-(3-methyl-4-((4-(trifluoromethyl)piperidin-1-yl)methyl)benzylamino)isoindoline-1,3-dione], the IC50 was under 200 nM.

`Cc1cc(CNc2cccc3c2C(=O)N(C2CCC(=O)NC2=O)C3=O)ccc1CN1CCC2(CCC2)CC1` (stereo not drawn) [Cpd 46, 4-(4-(7-azaspiro[3.5]nonan-7-ylmethyl)-3-methylbenzylamino)-2-(2,6-dioxopiperidin-3-yl)isoindoline-1,3-dione]: the IC50 was under 200 nM.

For the compound `Cc1cc(CNc2cccc3c2C(=O)N(C2CCC(=O)NC2=O)C3=O)ccc1CN1CCC2(CC1)CC(F)(F)C2` (stereo not drawn) [Cpd 47, 4-(4-((2,2-difluoro-7-azaspiro[3.5]nonan-7-yl)methyl)-3-methylbenzylamino)-2-(2,6-dioxopiperidin-3-yl)isoindoline-1,3-dione], the IC50 was under 200 nM.

As to `Cc1cc(CNc2cccc3c2C(=O)N(C2CCC(=O)NC2=O)C3=O)ccc1CN1CCC(C(F)F)CC1` (stereo not drawn) [Cpd 48, 4-(4-((4-(difluoromethyl)piperidin-1-yl)methyl)-3-methylbenzylamino)-2-(2,6-dioxopiperidin-3-yl)isoindoline-1,3-dione], the IC50 lay in the range of 200 to 500 nM.

As to `Cc1cc(CNc2cccc3c2C(=O)N(C2CCC(=O)NC2=O)C3=O)ccc1CN1CCN(c2ccc(C(N)=O)nc2)CC1` (stereo not drawn) [Cpd 49, 5-(4-(4-((2-(2,6-dioxopiperidin-3-yl)-1,3-dioxoisoindolin-4-ylamino)methyl)-2-methylbenzyl)piperazin-1-yl)picolinamide], the IC50 was under 200 nM.

For `Cc1cc(CNc2cccc3c2C(=O)N(C2CCC(=O)NC2=O)C3=O)ccc1CN1CCN(c2ccc(F)cc2F)CC1` (stereo not drawn) [Cpd 50, 4-(4-((4-(2,4-difluorophenyl)piperazin-1-yl)methyl)-3-methylbenzylamino)-2-(2,6-dioxopiperidin-3-yl)isoindoline-1,3-dione], the IC50 was 200 to 500 nM.
